Laboratory results: US12366572B2, “Activation of bioluminescence by structural complementation” (Promega Corporation, priority 2013, dated 2025)
Primed or numbered codes have the meaning given here. No end group written: not given here. *: point of attachment. Dabcyl′ = N-terminal Dabcyl quencher, CN(C)c1ccc(/N=N/c2ccc(C(=O)*)cc2)cc1

Assays:
NLpoly11S [1] = test: Dark and quencher peptides: background signal from NLpoly11S (Example 153); assay type: biochemical; conditions: NLpoly11S in NanoGlo reagent, 5 min
Experimental: A purified sample of NLpoly11S was diluted into NanoGlo reagent to give a final concentration of 2 uM. Pep86 is a high affinity luminogenic peptide and was used to induce maximum signal for NLpoly11S. Pep86 was prepared at 1 nM in PBS (pH 7.2) for a working solution. Dark peptide and quencher peptides (FIG. 180) were dissolved to 1 mM (or lower) in either PBS pH 7.2 or 150 mM NH4HCO3 and added in equal volume to the NanoGlo/NLpoly11S and then samples were read on a Tecan Infinite F500 reader using a 5 min time point.

NLpoly11S and NLpep114 = test: Inhibition of NLpoly11S/NLpep114 binding by dark peptides (Examples 136, 137); assay type: biochemical; conditions: for Signal of dark peptide with NLpoly11S on its own: no NLpep114 (Example 137)
Experimental: In FIG. 183A, 50 nM NLpoly11S was mixed with […] NLpep114 and 37.5 μM dark peptide (DP) candidate (Q-162, A-162, K-162 or E-162). NanoGlo® assay reagent (Promega Corporation) was added and incubated for 5 minutes. Luminescence was detected. In FIG. 183B, 50 nM NLpoly11S in assay buffer (PBS pH7+0.01% Prionex+1 mM DTT+0.005% Tergitol) was mixed with 7.5 μM NLpep114 (also in assay buffer) and variable amounts of dark peptide (DP) candidates Q-162 or K-162 (also in assay buffer). NanoGlo® assay reagent (Promega Corporation) was added and incubated for 5 minutes. Luminescence was detected on a Tecan Infinite F500 reader; 100 ms integration time; 5 min time point used.
In FIG. 184A, 5 nM NLpoly11S was mixed with 500 nM NLpep114 and variable amounts of a dark peptide (DP) candidate Q-162 or A-162 (n=3). NanoGlo® assay reagent (Promega Corporation) was added and incubated for 5 minutes. Luminescence was detected.
In FIG. 184B, 5 nM NLpoly11S in assay buffer was mixed with variable amounts of dark peptide (DP) candidates Q-162 or A-162 in assay buffer (no NLpep114)(n=3). NanoGlo® assay reagent (Promega Corporation) was added and incubated for 5 minutes. Luminescence was detected.

[2] = test system: circularly permuted Nluc (CP Nluc); test: Inhibition of circularly permuted NanoLuc luciferase by dark peptides (Example 138); assay type: biochemical; conditions: synthetic dark peptide dose-response, NanoGlo reagent, 5 min
Experimental: Recombinant CP Nluc was prepared as a soluble fraction of an E. coli 5×-concentrated lysate (T7-promoter; overnight expression). A 10,000-fold dilution of the CP Nluc in Assay Buffer (PBS pH 7/0.01% Prionex/1 mM DTT/0.005% Tergitol) was used. Synthetically-derived dark peptides were prepared across a range of concentrations, also in the Assay Buffer. Reactions were set up using 30 μL of CP NLuc and 60 μL of Dark peptide and assayed by adding 90 μL NanoGlo® assay reagent (Promega Corporation). Luminescence was measured (5 min) on a Tecan Infinite F500 reader (100 ms integration). Three replicates were used for Dark peptide samples. Two replicates were used for buffer controls (acetic acid from peptide stocks).

HELA cells = test: NLpep86-tagged firefly luciferase constructs in HELA cells detected with NLpoly11S reagent or Fluc activity (Example 141); assay type: cell-based; conditions: 48 hours after transfection
Experimental: Validating the Use of Spontaneously Interacting NLpep86 as an Epitope Tag for Proteins Degraded by the Proteasome Experiments were conducted during development of embodiments of the present invention to validate the use of NLpep86 as a tag to monitor expression levels of proteins degraded by the proteasome. To do this, Nlpep86 was fused to firefly luciferase variants that were also fused to either one or more PEST, CL1 or ubiquitin sequences (pBC21, 22, 24-29). Each of these constructs is expected to undergo proteasome-mediated turnover to varying degrees following expression from a mutant CMV promoter (d1CMV).
The constructs pBC21, 22, 24-29 and control constructs expressing untagged firefly luciferase or untagged firefly luciferase fused to a PEST sequence (ATG082 and ATG083) were transiently transfected into HELA cells plated at 10,000 cells per well in a 96-well plate using 100 μL of DMEM+10% FBS. […] Protein expression levels were quantified in replicate wells for each construct by detecting firefly luciferase activity or by adding a detection reagent containing NLpoly11S (purified NLpoly11S added to NanoGlo®).
After a 48 hour incubation, 100 uL NanoGlo® […] reagent (90 ul of NLpoly11S in 50 ml of NanoGlo® assay reagent was added to each well and incubate for 3 minutes with shaking. Luminescence was then read on GloMax luminometer (0.5 sec/well).

NLpoly 5P = test: Titration of NLpoly 5P with NLpep88-HT (Example 47); assay type: biochemical; conditions: serial dilutions of NLpep88-HT lysate
NLpoly11S [3] = test: Binding of NLpoly11S to synthetic NLPep78/79 and N- or C-terminal HaloTag fusions (Examples 107, 108); conditions: E. coli lysates, NanoGlo + 100 uM Fz
Experimental: (§1) Fusions of NLpep78-HaloTag (78-HT) and HaloTag-NLPep78 (HT-78) were quantitated, with a GST-HaloTag® fusion (GST-HT) as a control, by labeling E. coli lysates with the HaloTag-TMR® ligand, separated by SDS-PAGE, and scanned on Typhoon. A standard curve was then created using known concentrations of GST-HT standard, and band intensities of 78-HT and HT-78 were used to determine their concentrations.
(§2) E. coli lysates containing NLpoly11S were diluted 1:107 into PBS pH 7+0.1% Prionex. Serial dilutions of 78-HT, HT-78, and synthetic NLpep78 were made in PBS pH 7+0.1% Prionex. 20 uL NLpoly11S and 20 μL of one of the NLPep were mixed and incubated at ambient temperature for 5 minutes. 40 uL NanoGlo® reagent (Promega Corporation)+100 uM Fz were added, and the samples incubates at ambient temperature for 5 min. Luminescence was measured on GlomaxMulti+ using 0.5 s integration. Data was fit to one-site, specific binding using GraphPad Prism to determine Bmax and Kd.
as §1, with “NLpep79-HaloTag (79-HT)” for “NLpep78-HaloTag (78-HT)”, “HaloTag-NLPep79 (HT-79)” for “HaloTag-NLPep78 (HT-78)”, “79-HT” for “78-HT”, “HT-79” for “HT-78”
as §2, with “79-HT, HT-79,” for “78-HT, HT-78,”, “NLpep79” for “NLpep78”

BRD4/Histone H3.3 = BRD4/Histone H3.3 (Homo sapiens, UniProt O60885); test: Inhibition of NLpoly11S-BRD4 / Histone H3.3-NLpep114 interaction in HEK293T cells (Example 128)
[4] = test system: wt Oplophorus 157-169 peptide; test: Relative specific activity in HEK293T lysates (Example 143); assay type: biochemical; conditions: averages of Vmax and Bmax normalized to NanoLuc
Experimental: Each clone was inserted into pFN21A HaloTag® CMV Flexi® Vector (Promega G2821), and lysates were prepared as follows: 3 ml HEK293T cells that have been diluted to a concentration of 200,000 cells/ml (600,000 cells total) were plated into each well of a 6-well plate and grown overnight at 37° C. in a CO2 incubator. The following day transfection complexes of each DNA were prepared by combining […] of DNA, Opti-MEM® (Life Technologies 11058-021) to a final volume of 310 μl and 20 μl of FuGENE® HD (Promega E231a). The transfection complexes were incubated for 20 minutes and then 150 μl of each complex added in duplicate to cells. The cells were grown overnight 37° C. in a CO2 incubator. The following day, the cells were washed cells with DPBS (Life Technologies 14190-144), and 1 ml fresh DPBS added. Cells were frozen to lyse and then thawed for testing. Duplicate transfection reactions lysates were combined.
In order to compare the specific activities of Nluc (full length enzyme) to wt Oplophorusl-156 and NLpoly11S in combination with wt Oplophorus 157-169 peptide (binary proteins), substrate titrations were run for all of the samples, but for the binary samples substrate titrations were run at multiple peptide concentrations. Using this format, it was possible to calculate a Vmax value for Nluc and both Vmax and Bmax values for NLpoly11S and wt Oplophorus 1-156. Three separate experiments were run using this format and Vmax and Bmax values were normalized to the Vmax of NanoLuc. Relative specific activities (calculated as averages of Vmax and Bmax) are normalized to NanoLuc.

[5] = high purity (>95%) peptides, 5 nM NLpoly11S, 500 nM NLpep114 (Example 137)

For “DAB-GWALFKK ({Dabcyl′}-GWALFKK) [Dabcyl-GWALFKK]”, the “Background luminescence generated by NLpoly11S in the absence of other luminogenic peptide” value (NLpoly11S [1]) was “reduce the background luminescence generated by NLpoly11S”.

VSGWALFKKIS [Ala-162] was tested, and the “Signal of dark peptide with NLpoly11S on its own” value (NLpoly11S and NLpep114; 5 nM NLpoly11S) was “subtle at best”, the “Inhibition of binding between NLpoly11S and NLpep114” value (NLpoly11S and NLpep114; [5]) was “dose-dependent” and the “Inhibition of binding between NLpoly11S and NLpep114” value (NLpoly11S and NLpep114; high purity (>95%) peptides, 5 nM NLpoly11S, 500 nM NLpep114 (Example 137), listed as Ala peptide) was “most potent as an inhibitor”. For the same molecule, the “Inhibition of generation of luminescence by CP Nluc” value [2] was > 2 logs.

In the case of VTGWALFEEIL, the “Luminescence relative to background (NLpoly11S alone; no peptide control)” value (NLpoly11S [1]) is reported as “induce luminescence over background”.

In the case of BC26: MVSGWRLFKKIS-GGSGGGGSGG-Fluc-CP, the “Relative brightness of construct (Fluc and NLpep86 signals)” value (HELA cells) is reported as “least bright”.

BC21: MVSGWRLFKKIS-GGSGGGGSGG-Fluc was tested, and the “Relative brightness of construct (Fluc and NLpep86 signals)” value (HELA cells) was “brightest”.

With VTGYALFEEIL the “Luminescence relative to background (NLpoly11S alone; no peptide control)” value (NLpoly11S [1]) was “induce luminescence over background”.

In the case of “NLpep88: NLpep78 with Gly as 6th residue instead of Arg, HT fusion lysate (MNVSGWGLFKKISN; also: HT fusion (lysate))”, the “Luminescence with NLpoly 5P” value (NLpoly 5P) is reported as “no increase in luminescence above 5P alone at lower concentrations”.

With NVTGYRLFKKISN [NLPep79] the “Binding affinity to NLpoly11S: synthetic vs N- or C-terminal HaloTag fusion” value (NLpoly11S [3]) was “not found to change significantly” and the “Bmax with NLpoly11S when NLPep at the C-terminus of HaloTag” value (NLpoly11S [3]) was “reduced”.

With VSGWQLFKKIS [Gln-162] the “Signal of dark peptide with NLpoly11S on its own” value (NLpoly11S and NLpep114; 5 nM NLpoly11S) was “produces a signal on its own in a dose-dependent manner”, the “Inhibition of binding between NLpoly11S and NLpep114” value (NLpoly11S and NLpep114; array peptides, 50 nM NLpoly11S, 7.5 μM NLpep114 (Example 136)) was “dose-dependent” and the “Inhibition of binding between NLpoly11S and NLpep114” value (NLpoly11S and NLpep114; [5]) was “dose-dependent”. For the same molecule, the “Inhibition of generation of luminescence by CP Nluc” value [2] was > 1 logs.

For NVSGWRLFKKISN [NLPep78], the “Binding affinity to NLpoly11S: synthetic vs N- or C-terminal HaloTag fusion” value (NLpoly11S [3]) was “not found to change significantly” and the “Bmax with NLpoly11S when NLPep at the C-terminus of HaloTag” value (NLpoly11S [3]) was “reduced”.

In the case of `COc1cc2c(cc1-c1c(C)noc1C)ncc1[nH]c(=O)n([C@H](C)c3ccccn3)c12` [IBET-151], the “Time within which the decline in luminescence occurs” value (BRD4/Histone H3.3; 0-500 nM IBET-151, time course) is reported as ≤ 3 h and the “Effect on luminescence of NLpoly11S-BRD4 / Histone H3.3-NLpep114” value (BRD4/Histone H3.3; 0 to 10 μM, 4 h at 37° C.) is reported as “dose-dependent decline in luminescence”.

GWALFKK was tested, and the “Background luminescence generated by NLpoly11S in the absence of other luminogenic peptide” value (NLpoly11S [1]) was “reduce the background luminescence generated by NLpoly11S”.

B1: wt 1-156: Wild-Type Oplophorus Luciferase Residues 1-156 (protein)
chain: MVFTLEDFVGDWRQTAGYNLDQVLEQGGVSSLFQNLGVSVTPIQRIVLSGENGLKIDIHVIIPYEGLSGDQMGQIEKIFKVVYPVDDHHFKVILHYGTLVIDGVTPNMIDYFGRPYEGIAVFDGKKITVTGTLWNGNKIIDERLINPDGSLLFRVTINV
B1 was tested, and the “Relative specific activity (*with wt 157-169 peptide)” value [4] was 0.07*.

B2: NanoLuc: full-length NanoLuc luciferase (Promega), SEQ ID NO: 2157 (protein)
chain: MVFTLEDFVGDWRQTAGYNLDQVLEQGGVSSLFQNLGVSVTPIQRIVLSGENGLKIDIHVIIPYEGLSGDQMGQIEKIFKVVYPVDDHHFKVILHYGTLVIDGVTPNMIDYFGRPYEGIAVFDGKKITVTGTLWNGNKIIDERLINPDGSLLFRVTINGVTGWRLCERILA
For B2, the “Relative specific activity (*with wt 157-169 peptide)” value [4] was 1.00.
